According to US20160145202A1 (priority 2013, published 2016):

Test system: Septoria tritici
Assay: Glass house trial: control of leaf blotch on wheat caused by Septoria tritici (SEPTTR_P1)
Type: in vivo
Details: 300 ppm, protective P1, wheat seedlings sprayed to run-off, visually assessed after 4 weeks
Experimental: The spray solutions were prepared in several steps:
The stock solution was prepared as follows: 0.84 ml of a 1:1 mixture of cyclohexanone and dimethylsulfoxide was added to 16.8 mg of active ingredient. Next, 27.16 ml of a mixture of water, acetone (10%), the emulsifier Wettol (0.1%) and the wetting agent Silwet (0.05%) was added.
This stock solution was then further diluted with the described solvent-emulsifier-water mixture to the desired concentrations. Two different compound applications were used: “protective, P1” and “curative, K1”, where the first means that the compound solution is applied a day before the fungus while the latter represents the opposite ordering.
Control of Leaf Blotch on Wheat Caused by Septoria tritici (SEPTTR_P1)
Leaves of pot-grown wheat seedling were sprayed to run-off with an aqueous suspension of F-1 (300 ppm), prepared as described. The plants were allowed to air-dry. At the following day the plants were inoculated with an aqueous spore suspension of Septoria tritici. Then the trial plants were immediately transferred to a humid chamber at 18-22° C. and a relative humidity close to 100%. After 4 days the plants were transferred to a chamber with 18-22° C. and a relative humidity close to 70%.

## CNC(=O)OCc1cc(/C(C)=N/OCc2cccc(C)n2)ccc1Cl [F-1, [2-chloro-5-[(E)-C-methyl-N-[(6-methyl-2-pyridyl)methoxy]carbonimidoyl]phenyl]methyl N-methylcarbamate]
  extent of fungal attack on the leaves (infection compared to untreated plants): ≤ 30%
